In EP4810040A2, “INHIBITORS OF APOL1 AND METHODS OF USING SAME” (priority 2020, dated 2022):
Like-named read-outs stand apart in the source and are kept apart here.

Target: T1, APOL1 G1 (Homo sapiens, UniProt O14791, I384M/S342G)
T1 sequence (O14791 28-398 S342G/I384M): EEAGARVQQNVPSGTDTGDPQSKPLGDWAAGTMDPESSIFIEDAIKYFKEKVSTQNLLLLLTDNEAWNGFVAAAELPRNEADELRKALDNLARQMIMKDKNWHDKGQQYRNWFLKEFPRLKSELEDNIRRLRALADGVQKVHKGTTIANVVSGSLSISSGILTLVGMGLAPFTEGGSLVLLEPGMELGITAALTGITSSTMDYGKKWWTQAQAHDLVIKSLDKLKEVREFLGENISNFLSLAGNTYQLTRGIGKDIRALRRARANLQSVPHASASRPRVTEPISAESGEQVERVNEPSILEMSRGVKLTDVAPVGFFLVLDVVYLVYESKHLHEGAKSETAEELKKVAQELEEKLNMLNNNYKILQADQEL
Assay: MultiTox-Fluor Multiplex Cytotoxicity Assay, tet-inducible APOL1 G1 T-REx-HEK293 cells
Type: cell-based
Parameters: expressed in transfected cells; host or cells: T-REx HEK293, clone G1 DC3.25 (pAAVS1-Puro-APOL1 G1)
Conditions: for IC90: read-out: Multi-Tox Assay IC90; for Emax: read-out: Multi-Tox Assay Max Activity (%)
Protocol: The MultiTox-Fluor Multiplex Cytotoxicity Assay is a single-reagent-addition, homogeneous, fluorescence assay that measures the number of live and dead cells simultaneously in culture wells. The assay measures cell viability and cytotoxicity by detecting two distinct protease activities. The live-cell protease activity is restricted to intact viable cells and is measured using a fluorogenic, cell-permeant peptide glycyl-phenylalanylamino fluorocoumarin (GF-AFC) substrate. The substrate enters intact cells, where it is cleaved to generate a fluorescent signal proportional to the number of living cells. […] A second, cell-impermeant, fluorogenic peptide substrate (bis-AAF-R110 Substrate) is used to measure dead-cell protease that has been released from cells that have lost membrane integrity. A ratio of dead to live cells is used to normalize data.
Briefly, the tet-inducible transgenic APOL1 T-REx-HEK293 cell lines were incubated with 50 ng/mL tet to induce APOL1 in the presence of 3-(2-(4-fluorophenyl)-1H-indol-3-yl)-N-((3S,4R)-4-hydroxy-2-oxopyrrolidin-3-yl)propenamide at […], 0.0045, 0.0015, 0.0005 µM in duplicate for 24 hours in a humidified 37°C incubator. The MultiTox reagent was added to each well and placed back in the incubator for an additional 30 minutes. The plate was read on the EnVision plate reader. A ratio of dead to live cells was used to normalize, and data was imported, analyzed and fit using Genedata Screener (Basel, Switzerland) software. Data was normalized using percent of control, no tet (100% viability), and 50 ng/mL tet treated (0% viability),and fit using Smart Fit. The reagents, methods, and complete protocol for the MultiTox assay are described below. Table 42. Reagents Used in the Multi-Tox Assay
Human embryonic kidney (HEK293) cell lines containing a tet-inducible expression system (T-REx™; Invitrogen, Carlsbad, CA) and Adeno-associated virus site 1 pAA VS1-Puro-APOL1 G0 or pAAVS1-Puro-APOL1 G1 or pAAVS1-Puro-APOL1 G2 Clones G0 DC2.13, G1 DC3.25, and G2 DC4.44 were grown in a T-225 flask at ~90% confluency in cell growth media (DMEM, 10% Tet-free FBS, 2 mM L-glutamine, 100 Units/mL penicillin-streptomycin, 5 µg/mL blasticidin S HCl, 1 µg/mL puromycin dihydrochloride). Cells were washed with DPBS and then trypsinized to dissociate from the flask. Media was used to quench the trypsin, cells were then pelleted at 200g and resuspended in fresh cell assay media (DMEM, 2% Tet-free FBS, 2 mM L-glutamine, 100 Units/mL penicillin-streptomycin). Cells were counted and diluted to 1.17 x 10^6 cells/mL. 20 µL of cells (23,400/well) were dispensed to every well of a 384-well Poly-D-Lysine coated plate using the Multidrop dispenser. The plates were then incubated at room temperature for one hour.
Tetracycline is needed to induce APOL1 expression. 1 mg/mL tet stock in water was diluted to 250 ng/mL (5X) in cell assay media. 60 µL of cell assay media (no tet control) was dispensed in columns 1 and 24, and 60 µL of 5X tet was dispensed in 384-PP-round bottom plate in columns 2 to 23 with the Multidrop dispenser.
Assay ready plates from the Global Compound Archive were ordered using template 384_APOL1Cell_DR10n2_50uM_v3. Compounds were dispensed at 200 nL in DMSO. The final top concentration was 10 µM with a 10 point 3-fold dilution in duplicate in the MultiTox assay.
20 µL were transferred from the 5X tet plate to the ARP and mixed, then 5 µL of 5X tet and the compounds were transferred to the cell plate and mixed using the Bravo. The cell plate was placed in the humidified 37°C 5% CO2 incubator for 24 hours.
The MultiTox-Fluor Multiplex Cytotoxicity Assay was performed in accordance with the manufacturer's protocol. […]

[1] = HEK293, Multi-Tox Assay, APOL1 variant (G0/G1/G2) of the HEK293 cells not given
[2] = Multi-Tox Assay, APOL1 variant not given
[3] = Multi-Tox Assay, APOL1 variant (G0/G1/G2) not stated in Table 46
[4] = Multi-Tox Assay, APOL1 variant not stated in Table 46

SMILES | IC90 [1] | Multi-Tox Assay Max Activity (%) [2] | Emax [2] | further results
C[C@H]1C[C@@]2(C[C@@H](c3cnn(C4CCS(=O)(=O)C4)c3)N1)OCCc1cc(Cl)sc12 (stereo partly drawn) [Compound 97] | < 50 nM |  |  | Emax: 99%
Cc1ccc(Cn2cc([C@@H]3C[C@]4(C[C@H](C)N3)OC[C@@H](O)c3cc(Cl)sc34)nn2)nc1 [Compound 294] | 50 to 500 nM | 100.0% |  | 
CCOc1ccc([C@@H]2C[C@]3(C[C@H](C)N2)OCCc2cc(Cl)sc23)nc1 (racemic) [Compound 69] | < 50 nM |  | 99.7% | 
CC1CC2(CC(C3CCC3)N1)OCCc1cc(Cl)sc12 (mixture of isomers) [Compound 218] | 50 to 500 nM |  | 99.3% | 
C[C@H]1C[C@@]2(C[C@@H](c3cn(Cc4ccc5nc(O)[nH]c5c4)nn3)N1)OC[C@@H](O)c1cc(Cl)sc12 [Compound 249] | > 500 nM | 92.0% |  | 
C[C@@H]1CC2(C[C@H](C)N1)OCCc1cc(C(F)(F)F)sc12 (single isomer, unassigned) [Compound 207] | 50 to 500 nM |  | 100% | 
Cc1nccn1CCCn1cc([C@@H]2C[C@]3(C[C@H](C)N2)OC[C@@H](O)c2cc(Cl)sc23)nn1 [Compound 251] | 50 to 500 nM |  |  | 
COc1cc(O)cc([C@@H]2C[C@]3(C[C@H](C)N2)OCCc2cc(Cl)sc23)c1 (racemic) [Compound 137] | 50 to 500 nM | 98.7% |  | 
C[C@H]1C[C@@]2(C[C@@H](c3cccc4[nH]c(=O)oc34)N1)OCCc1cc(Cl)sc12 (racemic) [Compound 141] | 50 to 500 nM | 96.3% |  | 
CCC(O)Cn1cc([C@@H]2C[C@]3(C[C@H](C)N2)OC[C@@H](O)c2cc(Cl)sc23)nn1 (stereo partly drawn) [Compound 284] | 50 to 500 nM | 101.0% |  | 
Cn1cc([C@@H]2C[C@]3(C[C@H](c4ccccc4)N2)OC[C@@H](O)c2cc(Cl)sc23)nn1 [Compound 387, (2'S,4S,6'R,7S)-2-chloro-2'-(1-methyltriazol-4-yl)-6'-phenyl-spiro[4,5-dihydrothieno[2,3-c]pyran-7,4'-piperidine]-4-ol] |  |  |  | IC90 [3]: > 500 nM; Emax [4]: 94%
C[C@H]1C[C@@]2(C[C@@H](c3cn(C)nn3)N1)OCC(C)(O)c1cc(C(F)(F)F)sc12 (stereo partly drawn) [Compound 384, (2'S,6'S,7S)-2',4-dimethyl-6'-(1-methyltriazol-4-yl)-2-(trifluoromethyl)spiro[5H-thieno[2,3-c]pyran-7,4'-piperidine]-4-ol] |  |  |  | IC90 [3]: < 50 nM; Emax [4]: 100%
C[C@H]1C[C@@]2(C[C@@H](c3ccc(C(N)=O)cc3)N1)OCCc1cc(Cl)sc12 (racemic) [Compound 47] | < 50 nM |  | 99.3% | 
Cn1cc(C2CC3(CC(C4CCC4)N2)OCCc2cc(Cl)sc23)nn1 (stereo not drawn) [Compound 189] | > 500 nM |  | 97% | 
Cc1c([C@@H]2C[C@]3(C[C@H](C)N2)OCCc2cc(Cl)sc23)cnn1C (racemic) [Compound 136] | 50 to 500 nM | 98.7% |  | 
C[C@H]1C[C@@]2(C[C@@H](c3cn(Cc4ccc(CO)cc4)nn3)N1)OCC(F)(F)c1cc(Cl)sc12 [Compound 225, (4-((4-((2S,4S,6S)-2'-chloro-4',4'-difluoro-2-methyl-4',5'-dihydrospiro[piperidine-4,7'-thieno[2,3-c]pyran]-6-yl)-1H-1,2,3-triazol-1-yl)methyl)phenyl)methanol] | 50 to 500 nM | 97.0% |  | 
C[C@H]1C[C@@]2(C[C@@H](c3ccnnc3)N1)OCCc1cc(Cl)sc12 (racemic) [Compound 93] | < 50 nM |  | 99.3% | 

SMILES | IC90 [1] | Multi-Tox Assay Max Activity (%) [2] | Emax [2] | further results
C[C@H]1C[C@@]2(C[C@@H](c3cn(CC(O)c4ccccc4)nn3)N1)OC[C@@H](O)c1cc(Cl)sc12 (stereo partly drawn) [Compound 281] | 50 to 500 nM |  |  | 
C[C@H]1C[C@@]2(C[C@@H](c3cn(CCc4ccncn4)nn3)N1)OCC(F)(F)c1cc(Cl)sc12 [Compound 305] | 50 to 500 nM | 100.0% |  | 
C[C@H]1CC2(C[C@@H](c3cn(C)nn3)N1)OCCc1sc(Cl)cc12 (single isomer, unassigned) [Compound 173] | < 50 nM |  | 99.5% | 
C[C@H]1C[C@@]2(C[C@@H](c3cn(Cc4cnc5cnccn45)nn3)N1)OCC(F)(F)c1cc(Cl)sc12 [Compound 358] | < 50 nM | 98.0% |  | 
Cc1c(Cn2cc([C@@H]3C[C@]4(C[C@H](C)N3)OC[C@@H](O)c3cc(Cl)sc34)nn2)cnn1C [Compound 285] | 50 to 500 nM | 98.0% |  | 
C[C@H]1CC2(CC(c3cn(C)cn3)N1)OCC(O)c1cc(Cl)sc12 (single isomer, unassigned) [Compound 178] | < 50 nM |  | 99.7% | 
CCc1cc2c(s1)C1(C[C@@H](C)N[C@@H](C)C1)OCC2 (single isomer, unassigned) [Compound 199] | 50 to 500 nM |  | 99.3% | 
CNC(=O)c1ccc(C2CC3(CC(C)N2)OCCc2cc(Cl)sc23)cc1 (stereo not drawn) [Compound 41] | < 50 nM | 99.7% |  | 
C[C@H]1C[C@@]2(C[C@@H](c3cnc(N(C)C)nc3)N1)OCCc1cc(Cl)sc12 (racemic) [Compound 75] | < 50 nM |  | 100% | 
C[C@H]1C[C@@]2(C[C@@H](c3cn(C)nn3)N1)OCCc1cc(C(F)(F)F)sc12 [Compound 2, (2'S,6'S,7S)-2'-methyl-6'-(1-methyltriazol-4-yl)-2-(trifluoromethyl)spiro[4,5-dihydrothieno[2,3-c]pyran-7,4'-piperidine]] | < 50 nM |  | 100% | 
CC1CC2(CC(c3cnn(CCS(C)(=O)=O)c3)N1)OCCc1cc(Cl)sc12 (stereo not drawn) [Compound 46] | < 50 nM |  |  | 
CNc1ncc([C@@H]2C[C@]3(C[C@H](C)N2)OCCc2cc(Cl)sc23)cn1 (racemic) [Compound 60] | < 50 nM | 99.7% |  | 
Cc1cc2c(s1)C1(CC(C)NC(c3cn(C)nn3)C1)OCC2 (single isomer, unassigned) [Compound 3] | < 50 nM |  | 99.7% | 
C[C@H]1C[C@@]2(C[C@@H](c3cn(C)nn3)N1)OC[C@@H](O)c1sc(Cl)cc12 [Compound 182] | < 50 nM |  | 100% | 
C[C@H]1C[C@@]2(C[C@@H](c3cnc(NC(C)(C)CO)nc3)N1)OCCc1cc(Cl)sc12 (racemic) [Compound 95] | < 50 nM |  | 99.8% | 
COCCOCCn1cc([C@@H]2C[C@]3(C[C@H](C)N2)OCC(F)(F)c2cc(Cl)sc23)nn1 [Compound 340] | 50 to 500 nM | 98.0% |  | 
